US20260102495A1, “METHOD FOR PRODUCING ONE OR SEVERAL SHARED CANCER EPITOPE(S) DERIVED FROM ALTERNATIVE TRANSLATIONAL CONTROL” (CENTRE LEON BERARD, priority 2022, published 2026)
No end group written: not given here.

How the values were obtained:
[1] = test system: HLA-A2+ normal human primary cells
Text: After elution, dissociation, filtration, and cleanup, peptides were lyophilized before further analysis. Transition parameters for each epitope peptide were examined and curated through Valid-NEO method builder bioinformatic pipeline to exclude ions with excessive noise due to coelution with impurities and to boost up the detectability through recursive optimizations of significant ions.

CD8+ naive T cells = assay: PBMCs priming assay on HLA-A*02:01 healthy donors with dextramer analysis; format: cell-based, human

Row | Sequence | presentation of epitope at the cell surface (MS transitions) [1] | donors in which priming of peptide specific CD8+ T cells was identified (CD8+ naive T cells; 12 different donors, FIG. 2B) | dextramer positive CD8+ T cells (CD8+ naive T cells; after 12 days priming with peptide pulsed MoDCs, FIG. 2A)
1 | LLLEATANL [PR3] | not presented by normal cells |  | 
2 | SLTDLYLRI [PR5] |  | 2 donors | 0.068%
